Assay results reported in patent US7928230B2, “Method for modulating GPR119 G protein-coupled receptor and selected compounds” (Bristol-Myers Squibb Company, priority 2007, dated 2011).
Counter-ions that a name gives are not always drawn.

These compounds were tested against T1, human GPR119 (Homo sapiens, UniProt Q8TDV5) (assay: Human Tet-inducible cAMP assay). Conditions: Flp-In-T-REx 293 tetracycline inducible cells expressing GPR119; Hit Hunter cAMP kit; 1 hour at 37° C.; read-out: hGPR119 EC50.
T1 construct: expressed in transfected cells; host or cells: Flp-In-T-REx 293 cells, tetracycline-induced
T1 sequence (Q8TDV5 1-335): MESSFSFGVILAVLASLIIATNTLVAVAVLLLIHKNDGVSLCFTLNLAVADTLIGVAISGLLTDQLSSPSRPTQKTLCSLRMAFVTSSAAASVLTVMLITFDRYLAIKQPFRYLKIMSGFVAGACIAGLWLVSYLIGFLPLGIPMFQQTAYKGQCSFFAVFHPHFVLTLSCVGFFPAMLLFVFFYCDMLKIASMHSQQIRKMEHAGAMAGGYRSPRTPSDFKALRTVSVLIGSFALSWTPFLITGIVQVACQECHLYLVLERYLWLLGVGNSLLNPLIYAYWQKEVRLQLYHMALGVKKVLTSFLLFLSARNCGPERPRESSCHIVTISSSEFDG
Assay type: cell-based
Protocol: The in vitro modulation of recombinant human GPR119 was determined as follows.
Human Tet-inducible cAMP Assay
Cell lines expressing GPR119 are generated using the Flp-In-T-REx 293 tetracycline inducible gene expression system are cultured in culture medium comprising the following components: DMFM#11965, 10% FBS, 2 mM L-glutamine, 200 ug/ml Hygromycin B, and 15 ug/ml blasticidin.
For cAMP assays, cells are plated on 96 well plates (e.g., BD Falcon: REF 353948, black side, clear bottom, TC surface) at a density of about 4.5×10^4 cells per well in growth medium containing 1.0 ug/ml tetracycline (1.0 mg/ml stock). The cells are then incubated for 48 hours at 37° C.
Following the incubation, the growth medium is removed from the wells and the wells rinsed (once) with the assay buffer included in the Hit Hunter cAMP kit (100 μl/well). Following the wash, 20 μl of assay buffer is added to each well, followed by addition of 10 μl of a 3× concentration compound working solution. The solution is then mixed. The final concentration range of compound is from about 10^−5M to about 10^−11M. The reagents are then incubated at 37° C. at 5% CO2 for 1 hour.
The manufacturer's protocol may be followed for cAMP determination. The Hit Hunter cAMP kit protocol is outlined for the HIT-T15 cAMP assays described above.
Compounds of the present invention were tested in the Human Tet-inducible cAMP assay described immediately above and the results shown in Table 4 below were obtained.

| SMILES | EC50 |
| --- | --- |
| CCCc1cnc(N2CCC(Oc3ccn(-c4ccc(-n5cncn5)cc4)c(=O)c3)CC2)nc1 [Example 1, 1-(4-(1H-1,2,4-triazol-1-yl)phenyl)-4-(1-(5-propylpyrimidin-2-yl)piperidin-4-yloxy)pyridin-2(1H)-one, hydrochloride salt] | 0.087 µM |
| CCCc1cnc(N2CCC(Oc3ccn(-c4ccc(-n5ccnc5)cc4)c(=O)c3)CC2)nc1 [Example 2, 1-(4-(1H-imidazol-1-yl)phenyl)-4-(1-(5-propylpyrimidin-2-yl)piperidin-4-yloxy)pyridin-2(1H)-one, hydrochloride salt] | 0.094 µM |
| CCCc1cnc(N2CCC(Oc3ccn(-c4ccc(-c5ncco5)cc4)c(=O)c3)CC2)nc1 [Example 3, 1-(4-(oxazol-2-yl)phenyl)-4-(1-(5-propylpyrimidin-2-yl)piperidin-4-yloxy)pyridin-2(1H)-one] | 0.204 µM |
| CC(C)OC(=O)N1CCC(Oc2ccn(-c3ccc(-n4cncn4)cc3)c(=O)c2)CC1 [Example 4, isopropyl 4-(1-(4-(1H-1,2,4-triazol-1-yl)phenyl)-2-oxo-1,2-dihydropyridin-4-yloxy)piperidine-1-carboxylate] | 5.19 µM |
